{"source": "paper PMC1664607", "about": "(PLoS Medicine, 2006)", "test_system": "clinically isolated M. tuberculosis", "assay": "microbe, parasite or virus in culture", "format": "cell-based", "note": "Several values for one entry are separate records, joined by “and”; a condition that tells them apart may be missing. Equal values may be shown once."}
{"smiles": "C[C@]1(COc2ccc(N3CCC(Oc4ccc(OC(F)(F)F)cc4)CC3)cc2)Cn2cc([N+](=O)[O-])nc2O1", "note": "[OPC-67683, (R)-2-methyl-6-nitro-2-(4-[4-(4-trifluoromethoxyphenoxy)piperidin-1-yl]phenoxymethyl}-2,3-dihydroimidazo[2,1-b]oxazole]", "values": [{"measurement": "Cross-resistance with the currently used anti-TB drugs", "result": "no cross-resistance"}, {"measurement": "MIC90", "result": "0.0134 µg/mL and 0.01221 µg/mL and 0.01279 µg/mL and 0.01341 µg/mL"}]}
